Data reported in patent US9604997B2, “Peri-carbinols” (ALDEXA THERAPEUTICS, INC., priority 2012, dated 2017).

Experiments:
[1] = RAL depletion kinetics by drug in rod outer segment preparation; format: biochemical, bovine; conditions: for Kapp, apparent equilibrium constant of RAL depletion by drug: rod outer segment prep containing 64 μM opsin at 37° C.; for kapp, apparent second order rate constant of RAL depletion by drug / ΔGapp, apparent free energy change of RAL depletion by drug: rod outer segment preparation containing 64 μM opsin at 37° C.; for ΔGapp, apparent free energy change of RAL depletion by drug: ΔGapp=−RT ln Kapp
Source text: The parameters associated with the analysis of RAL depletion kinetics are as follows:
[drawing 47] kapp: apparent second order rate constant of RAL depletion by drug. Kapp: apparent equilibrium constant of RAL depletion by drug.
[formula] ΔGapp: apparent free energy change of RAL depletion by drug. ΔGapp=−RT ln Kapp (2) KT: equilibrium constant of tautomerism from imine (ring opened) to oxaminal (ring closed).
Determination of kapp, Kapp and ΔGapp in rod outer segments. Frozen bovine rod outer segment preparation (64 μM of opsin) was thawed and vortexed thoroughly. A 200 μL aliquot of this sample was transferred into a 0.5 mL Eppendorf tube. To it was added 10 μL of 20 mM drug stock solution in EtOH, and the mixture vortexed for 1 min. The tube was incubated at 37° C. in a Thermo Scientific microprocessor controlled 280 series water bath for 3 min before 5 μL freshly prepared 2.4 mM RAL solution in EtOH was added (the nominal starting concentrations of drug and RAL are 1.00 mM and 60 μM, respectively). After vortexing for 1 min, the tube was incubated at 37° C. and aliquots of the reaction mixture (25 μL each) were taken periodically and added onto 10 mg of solid NaBH4 in a 0.5 mL Eppendorf tube. To the latter was added 400 μL of 2:1 (v/v) EtOH/HOAc. The reduction mixture was vortexed for 1 min and centrifuged. The supernatant was separated, and analyzed by HPLC using a standard HPLC method: • Instrument: HPLC-PE-97 • Column: Waters Sunfire C18 3.5 μm/4.6×100 mm column • Solvent A: 0.05% HCOOH/95% HPLC grade water/5% HPLC grade MeCN • Solvent B: 0.05% HCOOH HPLC grade MeCN • Pump program: 0-3 min 5-100% B, 3-30 min 100% B, 31-32 min 100%-5% B, 32-35 min 5% B • Flow rate: 1 mL/min • Detector wavelengths: 329 and 250 nm • Reference wavelength: 400 nm • Injection volume: 50 μL.
The RAL depletion percentages were calculated by normalization of retinol (ROL) and RAL-drug peak integrals, which were then plotted against reaction time. Least squares fit of the RAL depletion plot according to pseudo-first order kinetics yielded observed first order rate constant kobsd, and kapp is calculated according to kobsd=kapp[drug]. Kapp was calculated from the equilibrium concentrations of free RAL, free drug and RAL-drug according to equation (1). ΔGapp was calculated according to equation (2).

[2] = Imine/oxaminal tautomerism of RAL-drug adducts by 1H NMR in CDCl3; format: physicochemical; conditions: in CDCl3 at 25° C.; for ΔGT, free energy change of tautomerism from imine to oxaminal (ring closed): ΔGT=−RT ln KT
Method: [formula] ΔGT: free energy change of tautomerism from imine to oxaminal. ΔGT=−RT ln KT (4) General Methods.
Preparation of the adducts RAL-1, RAL-2 and RAL-3 of RAL with Compounds 1, 2 and 3. Mixtures of 25.6 mg (0.09 mmol) RAL and 0.11 mmol of either Compound 1 or 2, or Compound 3 (2-[3-amino-6-chloroquinolin-2-yl]propan-2-ol, wherein the carbinol has no peri-interaction), in 1 mL dry benzene were stirred in the dark under argon at room temperature for 1 hr. The mixtures were evaporated to dryness and the residues evaporated twice from 2 mL benzene. The residues were dissolved in 1 mL benzene, allowed to stand 1 hr at room temperature and evaporated to dryness. The residues were evaporated from benzene (3×2 mL), redesolved in 0.5 mL dry benzene, and the solutions loaded on silica gel columns. The columns were first eluted with hexanes, and further eluted with 50:1 (v/v) hexanes-ethyl acetate. The fractions containing the adducts were evaporated to dryness to provide pure RAL-1, RAL-2 and RAL-3. The adducts were dissolved in 0.8 mL dry CDCl3, and the ratio of imine and oxaminal tautomers were determined from their ^1H NMR spectra. The values of KT and ΔGT were calculated according to equations (3) and (4).

| Structure (SMILES) | Kapp, apparent equilibrium constant of RAL depletion by drug [1] | kapp, apparent second order rate constant of RAL depletion by drug [1] [M⁻¹ s⁻¹] | ΔGapp, apparent free energy change of RAL depletion by drug [1] [kcal/mol] | KT, equilibrium constant of tautomerism from imine to oxaminal (ring closed) [2] | ΔGT, free energy change of tautomerism from imine to oxaminal (ring closed) [2] |
| --- | --- | --- | --- | --- | --- |
| CC(C)(O)c1c(N)cnc2ccc(Cl)cc12 [Compound 2, 2-(3-amino-6-chloroquinolin-4-yl)propan-2-ol] | >2 × 10^7 | 0.5278 | <-10 | >>1000 | <<−4 kcal/mol |
| CC(C)(O)c1c(N)cnc2ccc(Cl)c(F)c12 [Compound 1, 2-(3-amino-6-chloro-5-fluoroquinolin-4-yl)propan-2-ol] | >2 × 10^7 | 0.8556 | <-10 | >>1000 | <<−4 kcal/mol |
| CC(C)(O)c1nc2ccc(Cl)cc2cc1N [Compound 3, 2-[3-amino-6-chloroquinolin-2-yl]propan-2-ol, reference compound] | 1.55 × 10^5 | 0.9917 | -7.4 | 1.3 | -0.155 kcal/mol |
